Laboratory results from PubChem BioAssay (NCI).
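Grown in 96-well plates, cells were treated for 48 hours with each compound at five concentrations. Insufficient inhibition: endpoint recorded as highest concentration tested. TGI: total growth inhibition.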

Columns and labels:
Assay in all cases: NCI anticancer screen, dose series, 48 h
786-0 renal = system: 786-0 renal
A498 renal = system: A498 renal
A549 NSCLC = system: A549 NSCLC
CAKI-1 renal = system: CAKI-1 renal
CCRF-CEM leukemia = system: CCRF-CEM leukemia
COLO 205 colon = system: COLO 205 colon
DU-145 prostate = system: DU-145 prostate
EKVX NSCLC = system: EKVX NSCLC
HCT-116 colon = system: HCT-116 colon
HL-60(TB) leukemia = system: HL-60(TB) leukemia
HOP-62 NSCLC = system: HOP-62 NSCLC
HOP-92 NSCLC = system: HOP-92 NSCLC
HS 578T breast = system: HS 578T breast
HT29 colon = system: HT29 colon
IGROV1 ovarian = system: IGROV1 ovarian
K-562 leukemia = system: K-562 leukemia
KM12 colon = system: KM12 colon
LOX IMVI melanoma = system: LOX IMVI melanoma
M14 melanoma = system: M14 melanoma
MALME-3M melanoma = system: MALME-3M melanoma
MCF7 breast = system: MCF7 breast
MDA-MB-231 breast = system: MDA-MB-231 breast
MDA-MB-435 = system: MDA-MB-435
MDA-N = system: MDA-N
MOLT-4 leukemia = system: MOLT-4 leukemia
NCI-H226 lung = system: NCI-H226 lung
NCI-H23 lung = system: NCI-H23 lung
NCI-H460 lung = system: NCI-H460 lung
NCI-H522 lung = system: NCI-H522 lung
NCI/ADR-RES ovarian = system: NCI/ADR-RES ovarian
OVCAR-3 ovarian = system: OVCAR-3 ovarian
OVCAR-4 ovarian = system: OVCAR-4 ovarian
OVCAR-5 ovarian = system: OVCAR-5 ovarian
PC-3 prostate = system: PC-3 prostate
RPMI-8226 leukemia = system: RPMI-8226 leukemia
RXF 393 renal = system: RXF 393 renal
SF-268 CNS = system: SF-268 CNS
SF-295 CNS = system: SF-295 CNS
SF-539 CNS = system: SF-539 CNS
SK-MEL-2 melanoma = system: SK-MEL-2 melanoma
SK-MEL-5 melanoma = system: SK-MEL-5 melanoma
SK-OV-3 ovarian = system: SK-OV-3 ovarian
SN12C renal = system: SN12C renal
SNB-19 CNS = system: SNB-19 CNS
SNB-75 CNS = system: SNB-75 CNS
SR leukemia = system: SR leukemia
SW-620 colon = system: SW-620 colon
T-47D breast = system: T-47D breast
TK-10 renal = system: TK-10 renal
U251 CNS = system: U251 CNS
UACC-257 melanoma = system: UACC-257 melanoma
UACC-62 melanoma = system: UACC-62 melanoma
UO-31 renal = system: UO-31 renal
ACHN renal = system: ACHN renal
BT-549 breast = system: BT-549 breast
HCC-2998 colon = system: HCC-2998 colon
HCT-15 colon = system: HCT-15 colon
SK-MEL-28 melanoma = system: SK-MEL-28 melanoma

## FC(F)(F)c1cccc(-c2nc3ccccc3c3c2[C@@]2(N4CCCC4)CCCC[C@@H]32)c1
786-0 renal
  TGI: > 100 µM
A498 renal
  TGI: 95.6 µM
A549 NSCLC
  TGI: > 100 µM
CAKI-1 renal
  TGI: > 100 µM
CCRF-CEM leukemia
  TGI: 87.9 µM
COLO 205 colon
  TGI: 30.4 µM
DU-145 prostate
  TGI: > 100 µM
EKVX NSCLC
  TGI: > 100 µM
HCT-116 colon
  TGI: > 100 µM
HL-60(TB) leukemia
  TGI: 71.6 µM
HOP-62 NSCLC
  TGI: > 100 µM
HOP-92 NSCLC
  TGI: 55.2 µM
HS 578T breast
  TGI: > 100 µM
HT29 colon
  TGI: > 100 µM
IGROV1 ovarian
  TGI: 37.4 µM
K-562 leukemia
  TGI: > 100 µM
KM12 colon
  TGI: > 100 µM
LOX IMVI melanoma
  TGI: 38.6 µM
M14 melanoma
  TGI: > 100 µM
MALME-3M melanoma
  TGI: > 100 µM
MCF7 breast
  TGI: 62.8 µM
MDA-MB-231 breast
  TGI: 49.3 µM
MDA-MB-435
  TGI: 59.3 µM
MDA-N
  TGI: > 100 µM
MOLT-4 leukemia
  TGI: > 100 µM
NCI-H226 lung
  TGI: > 100 µM
NCI-H23 lung
  TGI: > 100 µM
NCI-H460 lung
  TGI: > 100 µM
NCI-H522 lung
  TGI: 31.8 µM
NCI/ADR-RES ovarian
  TGI: > 100 µM
OVCAR-3 ovarian
  TGI: > 100 µM
OVCAR-4 ovarian
  TGI: > 100 µM
OVCAR-5 ovarian
  TGI: > 100 µM
PC-3 prostate
  TGI: > 100 µM
RPMI-8226 leukemia
  TGI: 41.4 µM
RXF 393 renal
  TGI: > 100 µM
SF-268 CNS
  TGI: > 100 µM
SF-295 CNS
  TGI: 74.7 µM
SF-539 CNS
  TGI: > 100 µM
SK-MEL-2 melanoma
  TGI: 41.3 µM
SK-MEL-5 melanoma
  TGI: 30.4 µM
SK-OV-3 ovarian
  TGI: > 100 µM
SN12C renal
  TGI: > 100 µM
SNB-19 CNS
  TGI: > 100 µM
SNB-75 CNS
  TGI: > 100 µM
SR leukemia
  TGI: > 100 µM
SW-620 colon
  TGI: > 100 µM
T-47D breast
  TGI: > 100 µM
TK-10 renal
  TGI: 89.8 µM
U251 CNS
  TGI: 71.4 µM
UACC-257 melanoma
  TGI: > 100 µM
UACC-62 melanoma
  TGI: 56.3 µM
UO-31 renal
  TGI: 48.9 µM

## Nc1nc2c(c(=O)[nH]1)C(c1ccc(Cl)cc1)C=C(c1ccccc1)N2 (stereo unspecified)
786-0 renal
  TGI: 74.5 µM
A498 renal
  TGI: > 100 µM
A549 NSCLC
  TGI: > 100 µM
ACHN renal
  TGI: > 100 µM
BT-549 breast
  TGI: > 100 µM
CAKI-1 renal
  TGI: > 100 µM
CCRF-CEM leukemia
  TGI: 93.4 µM
COLO 205 colon
  TGI: 45.6 µM
DU-145 prostate
  TGI: > 100 µM
HCC-2998 colon
  TGI: 34.2 µM
HCT-116 colon
  TGI: 41.8 µM
HCT-15 colon
  TGI: > 100 µM
HL-60(TB) leukemia
  TGI: > 100 µM
HOP-92 NSCLC
  TGI: 54.7 µM
K-562 leukemia
  TGI: 60 µM
LOX IMVI melanoma
  TGI: > 100 µM
MDA-MB-231 breast
  TGI: 43.6 µM
MDA-MB-435
  TGI: 41.8 µM
MDA-N
  TGI: 47.7 µM
NCI-H23 lung
  TGI: 59.1 µM
NCI-H460 lung
  TGI: 71.7 µM
OVCAR-4 ovarian
  TGI: > 100 µM
RPMI-8226 leukemia
  TGI: 39.3 µM
RXF 393 renal
  TGI: > 100 µM
SF-295 CNS
  TGI: > 100 µM
SK-MEL-28 melanoma
  TGI: 60.6 µM
SK-MEL-5 melanoma
  TGI: 55.8 µM
SK-OV-3 ovarian
  TGI: 54.9 µM
SN12C renal
  TGI: 46.6 µM
SNB-19 CNS
  TGI: > 100 µM
SR leukemia
  TGI: 51.8 µM
SW-620 colon
  TGI: 61.9 µM
T-47D breast
  TGI: 72.7 µM
TK-10 renal
  TGI: > 100 µM
U251 CNS
  TGI: 39.4 µM
UACC-257 melanoma
  TGI: > 100 µM
UACC-62 melanoma
  TGI: 78.3 µM
UO-31 renal
  TGI: > 100 µM
